Literature values in patent US20050148628A1 (priority 2002, published 2005).

Conditions: in vivo

terminal elimination half-life: 2-3 weeks
Compound: OC(c1cc(C(F)(F)F)nc2c(C(F)(F)F)cccc12)C1CCCCN1 (stereo not shown) [mefloquine]
